Source: patent US5073563A, “Alkoxycoumarins substituted by a heterocyclic radical, their preparation and therapeutic agents containing these compounds” (BASF Aktiengesellschaft, priority 1988, dated 1991)

target: T1, MAO A (Rattus norvegicus, UniProt P21396); assay: MAO A inhibition in dilute rat brain homogenate (14C substrate, 20 min at 37° C); format: biochemical; conditions: 14C-phenylethylamine or 14C-tryptamine 0.4 μmol/l, logit-log regression
T1 construct: determined in dilute rat brain homogenate; from tissue; host or cells: rat brain homogenate
T1 sequence (P21396 1-526): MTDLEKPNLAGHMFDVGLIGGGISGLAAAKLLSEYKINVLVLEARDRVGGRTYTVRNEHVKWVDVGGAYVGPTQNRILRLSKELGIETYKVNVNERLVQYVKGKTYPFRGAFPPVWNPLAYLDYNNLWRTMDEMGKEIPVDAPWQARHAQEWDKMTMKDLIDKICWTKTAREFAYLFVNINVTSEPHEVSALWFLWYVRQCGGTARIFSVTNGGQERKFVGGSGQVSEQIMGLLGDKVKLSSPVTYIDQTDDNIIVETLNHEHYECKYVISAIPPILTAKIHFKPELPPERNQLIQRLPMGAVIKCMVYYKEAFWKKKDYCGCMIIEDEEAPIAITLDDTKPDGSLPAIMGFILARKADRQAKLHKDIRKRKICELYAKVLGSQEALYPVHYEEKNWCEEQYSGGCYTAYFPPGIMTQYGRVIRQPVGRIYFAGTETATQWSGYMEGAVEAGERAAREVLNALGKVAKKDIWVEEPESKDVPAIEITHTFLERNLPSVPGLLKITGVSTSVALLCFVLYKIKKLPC
Procedure: (§1) The MAO-inhibiting activity of the novel compounds can be determined using standard methods. […] The mixture was incubated for 20 minutes at 37° C.
(§2) The blank value was determined in similar mixtures with an incubation time of t=0 min.
(§3) From the inhibitory values determined at the various inhibitor concentrations against a control, the mean inhibitory concentration (IC50) was calculated by linear regression following logit-log transformation.

Compound	IC50 [nM]
Cc1c(C)c2ccc(OCc3cc(CC(C)C)no3)cc2oc1=O [Example 34, 7-(3-Isobutylisoxazol-5-yl)-methoxy-3,4-dimethylcoumarin]	~10000
Cc1c(C)c2ccc(OCc3cc(C(C)(C)C)no3)cc2oc1=O [Example 35, 7-(3-tert-Butylisoxazol-5-yl)-methoxy-3,4-dimethylcoumarin]	> 10000
Cc1ccc(COc2ccc3c(C)c(C)c(=O)oc3c2)s1 [Example 42, 3,4-Dimethyl-7-(2-methylthiophen-5-yl)-methoxycoumarin]	350
Cc1c(C)c2ccc(OCc3nc(C4CC4)no3)cc2oc1=O [Example 44, 3,4-Dimethyl-7-(3-cyclopropyl-1,2,4-oxadiazol-5-yl)-methoxycoumarin]	~7000
Cc1ccsc1COc1ccc2c(C)c(C)c(=O)oc2c1 [Example 45, 3,4-Dimethyl-7-(3-methylthiophen-2-yl)-methoxycoumarin]	230
Cc1noc(COc2ccc3c(C)c(C)c(=O)oc3c2)n1 [Example 50, 3,4-Dimethyl-7-(3-methyl-1,2,4-oxadiazol-5-yl)-methoxycoumarin]	~4000
Cc1c(C)c2ccc(OCc3cc(C4CC4)no3)cc2oc1=O [Example 51, 7-(3-Cyclopropylisoxazol-5-yl)-methoxy-3,4-dimethylcoumarin]	> 10000
Cc1c(Cl)c(=O)oc2cc(OCc3cc(C(C)C)n(C)n3)ccc12 [Example 54, 3-Chloro-7-(5-isopropyl-1-methylpyrazol-3yl)-methoxy-4-methylcoumarin]	> 10000
CC(C)c1cc(COc2ccc3c4c(c(=O)oc3c2)CCCC4)nn1C [Example 55, 7-(5-Isopropyl-1-methylpyrazol-3-yl)-methoxy-3,4-tetramethylenecoumarin]	> 10000
Cc1c(C)c2ccc(OCc3cc(C4CC4)on3)cc2oc1=O [Example 58, 7-(5-Cyclopropylisoxazol-3-yl)-methoxy-3,4-dimethylcoumarin]	~7000
Cc1c(C)c2ccc(OCc3cc(C4CC4)n(C)n3)cc2oc1=O [Example 61, 7-(5-Cyclopropyl-1-methylpyrazol-3-yl)-methoxy-3,4-dimethylcoumarin]	> 10000
CCOc1nnc(COc2ccc3c(C)c(C)c(=O)oc3c2)s1 [Example 62, 7-(2-Ethoxy-1,3,4-thiadiazol-5-yl)-methoxy-3,4-dimethylcoumarin]	> 10000
Cc1nnc(COc2cc3oc(=O)c(C)c(C)c3cc2Br)s1 [Example 67, 6-Bromo-3,4-dimethyl-7-(2methyl-1,3,4-thiadiazol-5-yl)-methoxycoumarin]	> 10000
Cc1c(C)c2ccc(OCc3cc(C4CCC4)no3)cc2oc1=O [Example 68, 7-(3-Cyclobutylisoxazol-5-yl)-methoxy-3,4-dimethylcoumarin]	> 10000

target: T2, MAO B (Rattus norvegicus, UniProt P19643); assay: MAO B inhibition in dilute rat brain homogenate (14C substrate, 20 min at 37° C); format: biochemical; conditions: quotient of IC50 MAO A and IC50 MAO B (selectivity for MAO B); 20 min
T2 construct: determined in dilute rat brain homogenate; from tissue; host or cells: rat brain homogenate
T2 sequence (P19643 1-520): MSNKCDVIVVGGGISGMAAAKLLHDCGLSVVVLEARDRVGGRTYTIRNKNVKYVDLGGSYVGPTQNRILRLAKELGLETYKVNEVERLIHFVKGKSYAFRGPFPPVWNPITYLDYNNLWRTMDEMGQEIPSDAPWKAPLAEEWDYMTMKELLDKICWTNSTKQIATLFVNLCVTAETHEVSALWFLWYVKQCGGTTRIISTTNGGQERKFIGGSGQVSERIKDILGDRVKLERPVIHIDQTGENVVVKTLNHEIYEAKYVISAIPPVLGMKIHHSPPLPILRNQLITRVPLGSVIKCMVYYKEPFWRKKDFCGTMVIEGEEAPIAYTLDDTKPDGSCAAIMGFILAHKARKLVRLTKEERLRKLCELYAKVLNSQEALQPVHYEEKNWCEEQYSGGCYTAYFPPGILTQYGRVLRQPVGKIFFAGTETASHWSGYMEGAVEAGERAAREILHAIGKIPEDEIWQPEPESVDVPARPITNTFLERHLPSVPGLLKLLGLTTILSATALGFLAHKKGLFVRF
Procedure: as §1, §2, §3

Compound	IC50 ratio MAO A / MAO B
Cc1nnc(COc2ccc3c(C)c(C)c(=O)oc3c2)o1 [Example 1, 3,4-Dimethyl-7-(2-methyl-1,3,4-oxadiazol-5-yl)-methoxycoumarin]	370
Cc1c(C)c2ccc(OCc3nc(C(C)C)no3)cc2oc1=O [Example 26, 7-(3-Iospropyl-1,2,4-oxadiazol-5-yl)-methoxy-3,4-dimethylcoumarin]	> 7700
Cc1c(C)c2ccc(OCc3cc(CC(C)C)no3)cc2oc1=O [Example 34, 7-(3-Isobutylisoxazol-5-yl)-methoxy-3,4-dimethylcoumarin]	~ 4500
Cc1c(C)c2ccc(OCc3cc(C(C)(C)C)no3)cc2oc1=O [Example 35, 7-(3-tert-Butylisoxazol-5-yl)-methoxy-3,4-dimethylcoumarin]	> 11000
Cc1ccc(COc2ccc3c(C)c(C)c(=O)oc3c2)s1 [Example 42, 3,4-Dimethyl-7-(2-methylthiophen-5-yl)-methoxycoumarin]	680
Cc1c(C)c2ccc(OCc3nc(C4CC4)no3)cc2oc1=O [Example 44, 3,4-Dimethyl-7-(3-cyclopropyl-1,2,4-oxadiazol-5-yl)-methoxycoumarin]	~ 5800
Cc1ccsc1COc1ccc2c(C)c(C)c(=O)oc2c1 [Example 45, 3,4-Dimethyl-7-(3-methylthiophen-2-yl)-methoxycoumarin]	450
Cc1noc(COc2ccc3c(C)c(C)c(=O)oc3c2)n1 [Example 50, 3,4-Dimethyl-7-(3-methyl-1,2,4-oxadiazol-5-yl)-methoxycoumarin]	~ 930
Cc1c(C)c2ccc(OCc3cc(C4CC4)no3)cc2oc1=O [Example 51, 7-(3-Cyclopropylisoxazol-5-yl)-methoxy-3,4-dimethylcoumarin]	> 12500
Cc1c(Cl)c(=O)oc2cc(OCc3cc(C(C)C)n(C)n3)ccc12 [Example 54, 3-Chloro-7-(5-isopropyl-1-methylpyrazol-3yl)-methoxy-4-methylcoumarin]	> 6700
CC(C)c1cc(COc2ccc3c4c(c(=O)oc3c2)CCCC4)nn1C [Example 55, 7-(5-Isopropyl-1-methylpyrazol-3-yl)-methoxy-3,4-tetramethylenecoumarin]	> 1000
Cc1c(C)c2ccc(OCc3cc(C4CC4)on3)cc2oc1=O [Example 58, 7-(5-Cyclopropylisoxazol-3-yl)-methoxy-3,4-dimethylcoumarin]	~ 8300
Cc1c(C)c2ccc(OCc3cc(C4CC4)n(C)n3)cc2oc1=O [Example 61, 7-(5-Cyclopropyl-1-methylpyrazol-3-yl)-methoxy-3,4-dimethylcoumarin]	> 1100
CCOc1nnc(COc2ccc3c(C)c(C)c(=O)oc3c2)s1 [Example 62, 7-(2-Ethoxy-1,3,4-thiadiazol-5-yl)-methoxy-3,4-dimethylcoumarin]	> 1300
Cc1nnc(COc2cc3oc(=O)c(C)c(C)c3cc2Br)s1 [Example 67, 6-Bromo-3,4-dimethyl-7-(2methyl-1,3,4-thiadiazol-5-yl)-methoxycoumarin]	> 9100
Cc1c(C)c2ccc(OCc3cc(C4CCC4)no3)cc2oc1=O [Example 68, 7-(3-Cyclobutylisoxazol-5-yl)-methoxy-3,4-dimethylcoumarin]	> 13000

same assay, conditions: rat brain homogenate; 14C-phenylethylamine or 14C-tryptamine 0.4 μmol/l; 20 minutes at 37° C; logit-log regression

Compound	IC50 [nM]
Cc1c(C)c2ccc(OCc3nc(C(C)C)no3)cc2oc1=O [Example 26, 7-(3-Iospropyl-1,2,4-oxadiazol-5-yl)-methoxy-3,4-dimethylcoumarin]	1.3
Cc1c(C)c2ccc(OCc3cc(CC(C)C)no3)cc2oc1=O [Example 34, 7-(3-Isobutylisoxazol-5-yl)-methoxy-3,4-dimethylcoumarin]	2.2
Cc1c(C)c2ccc(OCc3cc(C(C)(C)C)no3)cc2oc1=O [Example 35, 7-(3-tert-Butylisoxazol-5-yl)-methoxy-3,4-dimethylcoumarin]	0.92
Cc1ccc(COc2ccc3c(C)c(C)c(=O)oc3c2)s1 [Example 42, 3,4-Dimethyl-7-(2-methylthiophen-5-yl)-methoxycoumarin]	0.51
Cc1c(C)c2ccc(OCc3nc(C4CC4)no3)cc2oc1=O [Example 44, 3,4-Dimethyl-7-(3-cyclopropyl-1,2,4-oxadiazol-5-yl)-methoxycoumarin]	1.2
Cc1ccsc1COc1ccc2c(C)c(C)c(=O)oc2c1 [Example 45, 3,4-Dimethyl-7-(3-methylthiophen-2-yl)-methoxycoumarin]	0.51
Cc1noc(COc2ccc3c(C)c(C)c(=O)oc3c2)n1 [Example 50, 3,4-Dimethyl-7-(3-methyl-1,2,4-oxadiazol-5-yl)-methoxycoumarin]	4.3
Cc1c(C)c2ccc(OCc3cc(C4CC4)no3)cc2oc1=O [Example 51, 7-(3-Cyclopropylisoxazol-5-yl)-methoxy-3,4-dimethylcoumarin]	0.8
Cc1c(Cl)c(=O)oc2cc(OCc3cc(C(C)C)n(C)n3)ccc12 [Example 54, 3-Chloro-7-(5-isopropyl-1-methylpyrazol-3yl)-methoxy-4-methylcoumarin]	1.5
CC(C)c1cc(COc2ccc3c4c(c(=O)oc3c2)CCCC4)nn1C [Example 55, 7-(5-Isopropyl-1-methylpyrazol-3-yl)-methoxy-3,4-tetramethylenecoumarin]	10
Cc1c(C)c2ccc(OCc3cc(C4CC4)on3)cc2oc1=O [Example 58, 7-(5-Cyclopropylisoxazol-3-yl)-methoxy-3,4-dimethylcoumarin]	0.84
Cc1c(C)c2ccc(OCc3cc(C4CC4)n(C)n3)cc2oc1=O [Example 61, 7-(5-Cyclopropyl-1-methylpyrazol-3-yl)-methoxy-3,4-dimethylcoumarin]	1.9
CCOc1nnc(COc2ccc3c(C)c(C)c(=O)oc3c2)s1 [Example 62, 7-(2-Ethoxy-1,3,4-thiadiazol-5-yl)-methoxy-3,4-dimethylcoumarin]	7.5
Cc1nnc(COc2cc3oc(=O)c(C)c(C)c3cc2Br)s1 [Example 67, 6-Bromo-3,4-dimethyl-7-(2methyl-1,3,4-thiadiazol-5-yl)-methoxycoumarin]	1.1
Cc1c(C)c2ccc(OCc3cc(C4CCC4)no3)cc2oc1=O [Example 68, 7-(3-Cyclobutylisoxazol-5-yl)-methoxy-3,4-dimethylcoumarin]	0.77
